Experimental data reported in patent publication US8394954B2, “Benzophenone hybrids as anticancer agents and processes for the preparation thereof” (Council of Scientific & Industrial Research, priority 2007, dated 2013).

What was measured:
[1] = system: Nonsmall-cell-lung cancer cell lines; assay: NCI in vitro anticancer screen, non-small-cell lung panel; format: cell-based, human; conditions: average of six to nine cell lines; for GI50: Homo sapiens, read-out: Log GI50 (concentration in mol/L causing 50% growth inhibition) (converted)
Experimental: (§1) Compounds described herein were evaluated for in vitro anticancer activity. Particularly the 6a, 6b, 6d, 6h, 8a and 8b compounds were evaluated for in vitro anticancer activity against sixty human tumor cells derived from nine cancer types (leukemia, non-small-cell lung, colon, […], ovarian, prostate, and breast cancer) as shown in (Table 2 and 3). For the compound, dose response curves for each cell line were measured at a minimum of five concentrations at 10 fold dilutions. A protocol of 48 h continuous drug exposure was used and a sulforhodamine B (SRB) protein assay was used to estimate cell viability or growth. The concentration causing 50% cell growth inhibition (GI50), total cell growth inhibition (TGI 0% growth) and 50% cell death (LC50, −50% growth) compared with the control was calculated.

[2] = system: Ovarian cancer cell lines; assay: NCI in vitro anticancer screen, ovarian panel; format: cell-based, human; conditions: average of six to nine cell lines; for GI50: Homo sapiens, read-out: Log GI50 (concentration in mol/L causing 50% growth inhibition) (converted)
Experimental: as §1

Renal cancer cell lines = assay: NCI in vitro anticancer screen, renal panel; format: cell-based, human; conditions: average of six to nine cell lines; for GI50: Homo sapiens, read-out: Log GI50 (concentration in mol/L causing 50% growth inhibition) (converted)
Experimental: as §1

[3] = system: sixty human tumor cells derived from nine cancer types; assay: NCI in vitro anticancer screen, 48 h exposure, SRB assay, mean over all lines; format: cell-based; conditions: for GI50: Homo sapiens, wide spectrum of activity against sixty cell lines in nine cell panels; for Log10LC50 mean graph midpoint (MG_MID) / Log10GI50 mean graph midpoint (MG_MID) / Log10TGI mean graph midpoint (MG_MID): human tumor cell lines, 48 h exposure; for Log10LC50 mean graph midpoint (MG_MID): 50% cell death; for Log10GI50 mean graph midpoint (MG_MID): 50% cell growth inhibition; for Log10TGI mean graph midpoint (MG_MID): total cell growth inhibition
Experimental: as §1

[4] = system: Leukemia cancer cell lines; assay: NCI in vitro anticancer screen, leukemia panel; format: cell-based, human; conditions: average of six to nine cell lines; for GI50: Homo sapiens, read-out: Log GI50 (concentration in mol/L causing 50% growth inhibition) (converted)
Experimental: as §1

[5] = system: Prostate cancer cell lines; assay: NCI in vitro anticancer screen, prostate panel; format: cell-based, human; conditions: average of six to nine cell lines; for GI50: Homo sapiens, read-out: Log GI50 (concentration in mol/L causing 50% growth inhibition) (converted)
Experimental: as §1

CNS cancer cell lines = assay: NCI in vitro anticancer screen, CNS panel; format: cell-based, human; conditions: average of six to nine cell lines; for GI50: Homo sapiens, read-out: Log GI50 (concentration in mol/L causing 50% growth inhibition) (converted)
Experimental: as §1

[6] = system: duplex-form calf thymus DNA (CT-DNA); assay: Thermal denaturation studies with CT-DNA; format: binding; conditions: [BPD]:[DNA] molar ratio 1:5, CT-DNA 100 μM, ligand 20 μM, pH 7.00
Experimental: Compounds were subjected to thermal denaturation studies with duplex-form calf thymus DNA (CT-DNA). Working solutions in aqueous buffer (10 mM NaH2PO4/Na2HPO4, 1 mM Na2EDTA, pH 7.00+0.01) containing CT-DNA (100 μm in phosphate) and the BPD (20 μm) were prepared by addition of concentrated BPD solutions in DMSO to obtain a fixed [BPD]/[DNA] molar ratio of 1:5. The DNA-BPD solutions were incubated at 37° C. for 0, 18, and 36 h prior to analysis. Samples were monitored at 260 nm using a Beckman DU-7400 spectrophotometer fitted with high performance temperature controller, and heating was applied at 1° C. min-1 in the 40-90° C. range. DNA helix coil transition temperatures (Tm) were obtained from the maxima in the (dA260)/dT derivative plots. Results are given as the mean±standard deviation from three determinations and are corrected for the effects of DMSO co-solvent using a linear correction term. Drug-induced alterations in DNA melting behavior are given by: ΔTm=Tm(DNA+BPD)−Tm(DNA alone), where the Tm value for the BPD-free CT-DNA is 69.0±0.01.

Breast cancer cell lines = assay: NCI in vitro anticancer screen, breast panel; format: cell-based, human; conditions: average of six to nine cell lines; for GI50: Homo sapiens, read-out: Log GI50 (concentration in mol/L causing 50% growth inhibition) (converted)
Experimental: as §1

Colon cancer cell lines = assay: NCI in vitro anticancer screen, colon panel; format: cell-based, human; conditions: average of six to nine cell lines; for GI50: Homo sapiens, read-out: Log GI50 (concentration in mol/L causing 50% growth inhibition) (converted)
Experimental: as §1

[7] = system: Melanoma cancer cell lines; assay: NCI in vitro anticancer screen, melanoma panel; format: cell-based, human; conditions: average of six to nine cell lines; for GI50: Homo sapiens, read-out: Log GI50 (concentration in mol/L causing 50% growth inhibition) (converted)
Experimental: as §1

[8] = system: human cancer cell lines of colon (Colo205), lung (Hop-62), cervix (SiHa), prostate (DU145, PC3), oral (DWD, HT1080), and breast (MCF7, Zr-75-1) origin; assay: In vitro evaluation of cytotoxic activity in selected human cancer cell lines, 48 h exposure; format: cell-based; conditions: 48 h continuous drug exposure
Experimental: In vitro evaluation of cytotoxic activity. Compounds 6a, 6b, 6d, 6e, 8a and 8b were evaluated for in vitro anticancer activity against nine human tumor cells derived from six cancer types (colon, prostate, oral, lung, cervix and breast cancer) as shown in Table 2. […] Compounds 6a, 6b, 6d, 6e, 8a and 8b have been evaluated for their in vitro cytotoxicity in selected human cancer cell lines of colon (Colo205), lung (Hop-62), cervix (SiHa), prostate (DU145, PC3), oral (DWD, HT1080), and breast (MCF7, Zr-75-1) origin. A protocol of 48 h continuous drug exposure has been used and an […] has been used to estimate cell viability or growth. The results are expressed as percent of cell growth determined relative to that of untreated control cells

| SMILES | GI50 [1] | GI50 [2] | GI50 (Renal cancer cell lines) | Log10LC50 mean graph midpoint (MG_MID) [3] | Log10GI50 mean graph midpoint (MG_MID) [3] | Log10TGI mean graph midpoint (MG_MID) [3] | GI50 [4] | GI50 [5] | GI50 (CNS cancer cell lines) | ΔTm after incubation at 37° C. for 0 h [6] | ΔTm after incubation at 37° C. for 18 h [6] | ΔTm after incubation at 37° C. for 36 h [6] | GI50 (Breast cancer cell lines) | GI50 (Colon cancer cell lines) | GI50 [7] | cytotoxicity against some cancer cell lines [8] | other results |
| --- | --- | --- | --- | --- | --- | --- | --- | --- | --- | --- | --- | --- | --- | --- | --- | --- | --- |
| O=C(c1ccccc1)c1cc(Cl)ccc1OCCCCN1CCN(CCCCOc2ccc(Cl)cc2C(=O)c2ccccc2)CC1 [Compound 8b] | 3.24 µM | 5.75 µM | 2.57 µM | −5.25 | −6.35 | −5.51 | 0.631 µM | 3.16 µM | 4.17 µM | 1.6 °C | 2.6 °C | 2.9 °C | 3.47 µM | – | – | – | GI50 [3]: < 20 µM |
| O=C(CN1CCN(c2ncccn2)CC1)Nc1ccc(Cl)cc1C(=O)c1ccccc1Cl [Compound 6b, N1-[4-chloro-2-(2-chlorobenzoyl)phenyl]-2-[4-(2-pyrimidinyl)piperazino]acetamide] | 3.63 µM | 5.75 µM | 5.62 µM | −5.73 | −6.57 | −6.89 | 5.5 µM | 16.6 µM | 5.89 µM | 1.5 °C | 2.1 °C | 2.6 °C | 6.76 µM | 2.14 µM | 1.78 µM | – | – |
| O=C(CN1CCN(CC(=O)Nc2ccc(Cl)cc2C(=O)c2ccccc2Cl)CC1)Nc1ccc(Cl)cc1C(=O)c1ccccc1Cl [Compound 6f, N1-[4-chloro-2-(2-chlorobenzoyl)phenyl]-2-(4-2-[4-chloro-2-(2-chlorobenzoyl)anilino]-2-oxoethylpiperazino)acetamide] | – | – | – | – | – | – | – | – | – | 1.3 °C | 2.1 °C | 3.0 °C | – | – | – | – | – |
| CC(C)(C)c1cn2cccc(C(=O)N3CCN(CC(=O)Nc4ccc(Cl)cc4C(=O)c4ccccc4Cl)CC3)c2n1 [Compound 6e] | 0.661 µM | 3.55 µM | 1.05 µM | −5.39 | −5.93 | −6.28 | 0.851 µM | 1.35 µM | 1.41 µM | 1.9 °C | 2.3 °C | 2.8 °C | 2.14 µM | 0.589 µM | 3.47 µM | promising cytotoxicity | – |
| O=C(CN1CCN(c2ccccn2)CC1)Nc1ccc(Cl)cc1C(=O)c1ccccc1Cl [Compound 6a, N1-[4-chloro-2-(2-chlorobenzoyl)phenyl]-2-[4-(2-pyridyl)piperazino]acetamide] | 2.51 µM | 6.76 µM | 1.55 µM | −4.35 | −6.51 | −6.54 | 3.55 µM | 1.78 µM | 5.62 µM | 1.2 °C | 1.7 °C | 2.2 °C | 3.89 µM | 5.75 µM | 1.29 µM | promising cytotoxicity | GI50 [3]: < 20 µM |
| O=C(CN1CCN(CCCN2CCN(CC(=O)Nc3ccc(Cl)cc3C(=O)c3ccccc3Cl)CC2)CC1)Nc1ccc(Cl)cc1C(=O)c1ccccc1Cl [Compound 6g] | – | – | – | – | – | – | – | – | – | 1.6 °C | 2.6 °C | 2.9 °C | – | – | – | – | – |
| COc1cc2c(cc1O)N=CC1CCCN1C2=O (stereo not drawn) [DC-81, reference compound] | – | – | – | – | – | – | – | – | – | 0.3 °C | 0.7 °C | – | – | – | – | – | – |
| COc1ccccc1N1CCN(CC(=O)Nc2ccc(Cl)cc2C(=O)c2ccccc2Cl)CC1 [Compound 6c, N1-[4-chloro-2-(2-chlorobenzoyl)phenyl]-2-[4-(2-methoxyphenyl)piperazino]acetamide] | – | – | – | – | – | – | – | – | – | 1.4 °C | 1.6 °C | 2.3 °C | – | – | – | promising cytotoxicity | – |
| O=C(CN1CCN(CCCOc2oc3ccccc3c(=O)c2-c2ccccc2)CC1)Nc1ccc(Cl)cc1C(=O)c1ccccc1Cl [Compound 8a] | – | – | – | −5.32 | −6.19 | −6.33 | – | – | – | 1.4 °C | 2.1 °C | 2.1 °C | – | – | – | promising cytotoxicity | Log GI50 (concentration in mol/L causing 50% growth inhibition) [1]: −5.75 mol/L; Log GI50 (concentration in mol/L causing 50% growth inhibition) [2]: −5.80 mol/L; Log GI50 (concentration in mol/L causing 50% growth inhibition) (Renal cancer cell lines): −5.71 mol/L; Log GI50 (concentration in mol/L causing 50% growth inhibition) [4]: −6.11 mol/L; Log GI50 (concentration in mol/L causing 50% growth inhibition) [5]: −5.56 mol/L; Log GI50 (concentration in mol/L causing 50% growth inhibition) (CNS cancer cell lines): −5.69 mol/L; Log GI50 (concentration in mol/L causing 50% growth inhibition) (Colon cancer cell lines): −5.75 mol/L; Log GI50 (concentration in mol/L causing 50% growth inhibition) [7]: −5.79 mol/L; Log GI50 (concentration in mol/L causing 50% growth inhibition) (Breast cancer cell lines): −5.70 mol/L |
| COc1cc(/C=C/C(=O)c2ccc(F)cc2)ccc1OCCCN1CCN(CC(=O)Nc2ccc(Cl)cc2C(=O)c2ccccc2Cl)CC1 [Compound 8] | – | – | – | – | – | – | – | – | – | 1.5 °C | 2.3 °C | 2.4 °C | – | – | – | – | – |
